# Patent publication US12156885B2, “Methods and compositions for treating heart conditions” (priority 2020, dated 2024)
# Tests used:
# [1] = Treatment of PVCs in a patient with lithium carbonate in combination with metoprolol (cardiac event monitor / EKG); format: in vivo, human; details: lithium carbonate 300 mg per day (150 mg BID) in combination with metoprolol 150 mg per day
# Excerpt: Trial 1 was started on Aug. 23, 2019 and stopped on Jan. 1, 2020; Trial 2 was started on Jan. 12, 2020 and stopped on Apr. 21, 2020; and Trial 3 was started on May 8, 2020 and was ongoing at the time the instant application was filed.
# The first trial was 109 days. The second trial was 43 days.
# [2] = patient; lithium carbonate 300 mg per day (Li2CO3 150 mg BID)
smiles,measurement,setting,value
O=C([O-])[O-].[Li+].[Li+] [lithium carbonate],"PVCs reduced, each of three trials","[1]; each trial, for the duration of treatment with lithium",at least 90%
same,PVCs reduced (reduction of PVCs),"[1]; within a few days, for the duration of lithium treatment",about 90%
same,lithium serum level,[2],about 0.2
